Measurements reported in ChEMBL document CHEMBL1201862, “PubChem BioAssay data set” (2004).
Activity calls are given as the source filed them.

How the values were obtained:
Assay type in all cases: functional
CHO-K1 = assay: (§1) Counterscreen for antagonists of the orexin 1 receptor (OX1R; HCRTR1): Homogeneous time resolved fluorescence (HTRF)-based cell-based dose response assay to identify antagonists of the parental CHO-K1 cell line. [Related pubchem assays (depositor defined):AID434989, AID435008, AID463079, AID485270, AID492963, AID492964, AID492965, AID493232, AID504699, AID504701]; conditions: Cricetulus griseus
[1] = as §1, with “Fluorescence-based” for “Homogeneous time resolved fluorescence (HTRF)-based”, “cell-based high throughput” for “cell-based”, “CHO” for “CHO-K1”
[2] = target: T1, Orexin/Hypocretin receptor type 1 (Homo sapiens, UniProt O43613); assay: Homogeneous Time Resolved Fluorescence (HTRF)-based cell-based high throughput dose response assay for antagonists of the orexin 1 receptor (OX1R; HCRTR1). [Related pubchem assays (depositor defined):AID434989, AID435008, AID463079, AID485270, AID492963, AID492964, AID492965, AID493232, AID504717, AID504718]
T1 sequence (O43613 whole entry): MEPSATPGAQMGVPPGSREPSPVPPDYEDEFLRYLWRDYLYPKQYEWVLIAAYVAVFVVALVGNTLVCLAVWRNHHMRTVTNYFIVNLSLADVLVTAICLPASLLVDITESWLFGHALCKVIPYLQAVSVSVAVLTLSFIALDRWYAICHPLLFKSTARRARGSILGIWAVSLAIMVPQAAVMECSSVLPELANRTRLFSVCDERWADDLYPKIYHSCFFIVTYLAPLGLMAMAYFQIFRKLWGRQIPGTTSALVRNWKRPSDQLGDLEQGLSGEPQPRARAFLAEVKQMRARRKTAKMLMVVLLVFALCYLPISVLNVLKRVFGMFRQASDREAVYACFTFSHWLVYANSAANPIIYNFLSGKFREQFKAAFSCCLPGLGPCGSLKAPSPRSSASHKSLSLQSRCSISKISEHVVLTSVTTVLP

[3] = target: T1, Orexin/Hypocretin receptor type 1; assay: Fluorescence-based cell-based high throughput dose response assay for antagonists of the orexin 1 receptor (OX1R; HCRTR1). [Related pubchem assays (depositor defined):AID434989, AID435008, AID463079, AID485270, AID492963, AID492964, AID492965, AID493232, AID504717, AID504718]
Orexin receptor type 2 [4] = target: T2, Orexin receptor type 2 (Homo sapiens, UniProt O43614); assay: Counterscreen assay for antagonists of the orexin 1 receptor (OX1R; HCRTR1): Fluorescence-based cell-based dose response assay for antagonists of the orexin 2 receptor (OX2R; HCRTR2), run by assay provider.
T2 sequence (O43614 whole entry): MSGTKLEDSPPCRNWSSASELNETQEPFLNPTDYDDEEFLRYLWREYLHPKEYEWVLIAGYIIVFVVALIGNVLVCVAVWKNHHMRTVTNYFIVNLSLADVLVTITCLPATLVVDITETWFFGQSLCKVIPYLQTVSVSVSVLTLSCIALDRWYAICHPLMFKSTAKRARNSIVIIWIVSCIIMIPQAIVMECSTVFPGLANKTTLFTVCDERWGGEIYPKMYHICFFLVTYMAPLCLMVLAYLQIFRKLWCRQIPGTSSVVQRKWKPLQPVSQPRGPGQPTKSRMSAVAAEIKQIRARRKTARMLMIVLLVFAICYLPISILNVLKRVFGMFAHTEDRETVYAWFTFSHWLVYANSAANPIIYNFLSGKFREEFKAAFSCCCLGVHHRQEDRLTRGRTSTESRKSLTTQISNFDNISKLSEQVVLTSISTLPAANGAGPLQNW

Orexin receptor type 2 [5] = target: T2, Orexin receptor type 2; assay: Counterscreen assay for antagonists of the orexin 1 receptor (OX1R; HCRTR1): Homogeneous Time Resolved Fluorescence (HTRF)-based cell-based dose response assay for antagonists of the orexin 2 receptor (OX2R; HCRTR2), run by assay provider.
Melanocortin receptor 4 = Melanocortin receptor 4 (Homo sapiens, UniProt P32245); assay: MC4R antagonist potency on cAMP, dose response, cell-based, TR-FRET, biased antagonists (AID 602298);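 also: antagonist potency against agonist-stimulated cAMP production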
[6] = nonselective inhibitors of cellular cAMP signaling, dose response, counter-screen for MC4R biased antagonist project, cell-based, TR-FRET cAMP detection (AID 602305);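 also: U2OS cells stimulated with forskolin near its EC80 as the cAMP inducer; potency is for inhibition of forskolin-stimulated cAMP signaling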
[7] = THP-1 cell cytotoxicity, dose response, cytotoxicity control for non-replicating M. tuberculosis project (AID 489025)
cells = assay: cells
[8] = target: T3, High affinity choline transporter 1 (Homo sapiens, UniProt Q9GZV3); assay: CHT activators, dose response, cell-based, 10-point CRC, membrane potential dye (AID 602376)
T3 sequence (Q9GZV3 whole entry): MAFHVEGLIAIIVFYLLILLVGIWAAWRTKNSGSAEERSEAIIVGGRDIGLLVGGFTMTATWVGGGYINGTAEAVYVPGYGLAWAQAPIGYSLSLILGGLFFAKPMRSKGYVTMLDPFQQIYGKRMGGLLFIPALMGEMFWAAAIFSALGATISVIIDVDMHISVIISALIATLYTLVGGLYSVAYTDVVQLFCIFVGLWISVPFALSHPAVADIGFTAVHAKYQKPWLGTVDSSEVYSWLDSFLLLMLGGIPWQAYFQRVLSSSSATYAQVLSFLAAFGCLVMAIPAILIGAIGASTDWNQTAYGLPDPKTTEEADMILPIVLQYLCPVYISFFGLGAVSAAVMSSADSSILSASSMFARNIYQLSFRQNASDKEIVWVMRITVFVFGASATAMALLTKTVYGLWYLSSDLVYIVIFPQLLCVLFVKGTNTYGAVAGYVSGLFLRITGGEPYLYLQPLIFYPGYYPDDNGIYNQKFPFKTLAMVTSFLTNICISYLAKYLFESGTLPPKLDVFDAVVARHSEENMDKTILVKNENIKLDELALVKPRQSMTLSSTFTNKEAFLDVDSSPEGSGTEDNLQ

[9] = target: T4, Sentrin-specific protease 8 (Homo sapiens, UniProt Q96LD8); assay: SENP8 protease inhibitors, SAR follow-up, biochemical, luminescence (AID 504501)
T4 sequence (Q96LD8 whole entry): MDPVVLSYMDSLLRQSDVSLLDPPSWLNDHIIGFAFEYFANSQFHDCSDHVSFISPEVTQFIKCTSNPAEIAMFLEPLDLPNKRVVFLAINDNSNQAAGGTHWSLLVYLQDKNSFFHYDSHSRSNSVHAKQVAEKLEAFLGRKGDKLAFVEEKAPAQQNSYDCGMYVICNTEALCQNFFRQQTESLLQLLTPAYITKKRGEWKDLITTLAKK

Caspase-3 = target: T5, Caspase-3 (Homo sapiens, UniProt P42574); assay: SAR Analysis of small molecule inhibitors of Sentrin-specific proteases (SENPs) using a Caspase-3 Selectivity assay. [Related pubchem assays (depositor defined):AID2540, AID2599, AID434973, AID489001]
T5 sequence (P42574 whole entry): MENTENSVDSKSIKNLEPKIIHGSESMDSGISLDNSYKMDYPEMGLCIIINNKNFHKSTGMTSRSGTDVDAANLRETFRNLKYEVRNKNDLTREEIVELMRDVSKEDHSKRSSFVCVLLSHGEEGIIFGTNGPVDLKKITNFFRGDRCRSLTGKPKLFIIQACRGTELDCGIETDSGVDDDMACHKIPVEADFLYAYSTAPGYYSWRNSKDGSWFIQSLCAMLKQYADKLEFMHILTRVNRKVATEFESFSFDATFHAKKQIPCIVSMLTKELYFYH

[10] = target: T6, Sentrin-specific protease 6 (Homo sapiens, UniProt Q9GZR1); assay: SAR Analysis of small molecule inhibitors of Sentrin-specific protease 6 (SENP6) using a Luminescent assay. [Related pubchem assays (depositor defined):AID2582, AID2599]
T6 sequence (Q9GZR1 whole entry): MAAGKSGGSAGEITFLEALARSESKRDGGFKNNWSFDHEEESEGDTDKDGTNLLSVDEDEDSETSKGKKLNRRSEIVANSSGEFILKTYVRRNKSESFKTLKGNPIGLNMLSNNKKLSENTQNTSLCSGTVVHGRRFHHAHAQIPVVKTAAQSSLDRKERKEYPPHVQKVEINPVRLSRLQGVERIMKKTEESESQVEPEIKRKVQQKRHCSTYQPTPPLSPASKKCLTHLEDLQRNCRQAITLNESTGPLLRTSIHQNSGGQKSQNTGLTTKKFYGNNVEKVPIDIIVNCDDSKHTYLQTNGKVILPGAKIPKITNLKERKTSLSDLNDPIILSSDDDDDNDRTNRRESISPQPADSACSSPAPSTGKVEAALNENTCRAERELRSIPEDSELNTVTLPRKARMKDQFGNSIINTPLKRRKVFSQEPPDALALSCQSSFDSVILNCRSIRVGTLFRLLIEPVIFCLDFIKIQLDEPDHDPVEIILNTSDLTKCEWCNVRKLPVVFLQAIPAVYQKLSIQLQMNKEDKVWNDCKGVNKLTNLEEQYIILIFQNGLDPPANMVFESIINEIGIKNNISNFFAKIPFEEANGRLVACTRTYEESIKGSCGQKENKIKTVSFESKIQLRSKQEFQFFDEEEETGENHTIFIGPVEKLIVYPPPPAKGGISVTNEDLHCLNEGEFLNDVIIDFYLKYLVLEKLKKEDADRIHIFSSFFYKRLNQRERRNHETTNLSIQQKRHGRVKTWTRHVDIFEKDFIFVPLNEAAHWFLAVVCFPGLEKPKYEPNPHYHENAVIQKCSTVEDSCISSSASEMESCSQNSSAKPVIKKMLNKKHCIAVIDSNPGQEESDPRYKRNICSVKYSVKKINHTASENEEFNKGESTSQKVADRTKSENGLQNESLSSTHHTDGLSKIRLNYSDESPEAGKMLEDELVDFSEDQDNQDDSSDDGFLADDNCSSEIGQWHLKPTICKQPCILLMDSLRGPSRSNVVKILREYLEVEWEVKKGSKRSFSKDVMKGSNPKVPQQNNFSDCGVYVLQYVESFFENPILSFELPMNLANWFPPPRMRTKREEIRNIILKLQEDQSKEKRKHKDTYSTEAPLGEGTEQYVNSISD

[11] = target: T7, Sentrin-specific protease 7 (Homo sapiens, UniProt Q9BQF6); assay: SENP7 protease inhibitors, SAR follow-up, biochemical, luminescence (AID 504497)
T7 sequence (Q9BQF6 whole entry): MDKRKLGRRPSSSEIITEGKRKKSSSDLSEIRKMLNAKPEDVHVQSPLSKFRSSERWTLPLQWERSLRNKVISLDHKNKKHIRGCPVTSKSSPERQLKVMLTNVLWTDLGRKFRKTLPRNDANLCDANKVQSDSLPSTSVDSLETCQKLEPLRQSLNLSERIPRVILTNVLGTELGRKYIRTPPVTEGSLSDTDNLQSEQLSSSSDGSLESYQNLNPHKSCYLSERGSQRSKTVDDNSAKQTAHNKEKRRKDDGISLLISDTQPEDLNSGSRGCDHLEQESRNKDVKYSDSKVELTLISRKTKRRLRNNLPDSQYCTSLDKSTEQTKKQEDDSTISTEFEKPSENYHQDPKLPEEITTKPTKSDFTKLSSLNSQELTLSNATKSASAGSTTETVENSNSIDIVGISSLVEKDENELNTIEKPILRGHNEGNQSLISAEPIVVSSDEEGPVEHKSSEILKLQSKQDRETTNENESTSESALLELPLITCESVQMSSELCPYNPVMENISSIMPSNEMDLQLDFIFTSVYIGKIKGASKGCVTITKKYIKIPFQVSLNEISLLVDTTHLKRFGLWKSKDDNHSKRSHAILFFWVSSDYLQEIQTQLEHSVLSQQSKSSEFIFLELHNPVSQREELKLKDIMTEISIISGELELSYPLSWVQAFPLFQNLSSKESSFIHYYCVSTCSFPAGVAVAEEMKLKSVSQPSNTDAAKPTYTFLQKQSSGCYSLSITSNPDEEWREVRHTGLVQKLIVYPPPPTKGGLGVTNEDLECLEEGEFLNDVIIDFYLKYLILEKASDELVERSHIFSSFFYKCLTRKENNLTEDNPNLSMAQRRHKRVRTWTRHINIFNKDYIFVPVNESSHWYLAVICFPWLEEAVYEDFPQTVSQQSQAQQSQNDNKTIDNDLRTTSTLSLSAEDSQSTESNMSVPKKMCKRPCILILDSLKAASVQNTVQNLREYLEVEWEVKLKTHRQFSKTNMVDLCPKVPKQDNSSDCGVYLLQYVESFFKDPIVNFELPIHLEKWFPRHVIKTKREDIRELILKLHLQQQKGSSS

[12] = target: DNA dC->dU-editing enzyme APOBEC-3G (Homo sapiens, UniProt Q9HC16); assay: APOBEC3G deaminase inhibitors, SAR follow-up, biochemical, fluorescence, single-stranded DNA substrate (AID 602136); conditions: read-out: IC50_Mean
[13] = target: DNA dC->dU-editing enzyme APOBEC-3A (Homo sapiens, UniProt P31941); assay: SAR analysis of small molecule inhibitors of APOBEC3A DNA Deaminase via a fluorescence-based single-stranded DNA deaminase assay.; conditions: read-out: IC50_Mean
DNA dC->dU-editing enzyme APOBEC-3A, sequence (P31941 whole entry): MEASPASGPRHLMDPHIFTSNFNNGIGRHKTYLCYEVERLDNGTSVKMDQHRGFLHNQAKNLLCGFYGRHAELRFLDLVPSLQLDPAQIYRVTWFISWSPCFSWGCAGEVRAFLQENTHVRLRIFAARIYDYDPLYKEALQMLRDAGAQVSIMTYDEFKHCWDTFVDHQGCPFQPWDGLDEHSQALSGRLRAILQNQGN

Melanocortin receptor 4, sequence (P32245 whole entry): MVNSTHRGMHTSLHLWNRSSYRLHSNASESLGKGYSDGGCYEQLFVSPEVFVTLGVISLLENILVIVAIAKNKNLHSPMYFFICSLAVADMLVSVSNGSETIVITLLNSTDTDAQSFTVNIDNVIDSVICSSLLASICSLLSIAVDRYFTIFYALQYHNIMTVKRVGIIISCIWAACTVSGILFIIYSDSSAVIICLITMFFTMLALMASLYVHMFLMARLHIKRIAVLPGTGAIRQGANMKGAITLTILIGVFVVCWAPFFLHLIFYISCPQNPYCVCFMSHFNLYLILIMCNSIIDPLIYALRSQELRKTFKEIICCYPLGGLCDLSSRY
DNA dC->dU-editing enzyme APOBEC-3G, sequence (Q9HC16 whole entry): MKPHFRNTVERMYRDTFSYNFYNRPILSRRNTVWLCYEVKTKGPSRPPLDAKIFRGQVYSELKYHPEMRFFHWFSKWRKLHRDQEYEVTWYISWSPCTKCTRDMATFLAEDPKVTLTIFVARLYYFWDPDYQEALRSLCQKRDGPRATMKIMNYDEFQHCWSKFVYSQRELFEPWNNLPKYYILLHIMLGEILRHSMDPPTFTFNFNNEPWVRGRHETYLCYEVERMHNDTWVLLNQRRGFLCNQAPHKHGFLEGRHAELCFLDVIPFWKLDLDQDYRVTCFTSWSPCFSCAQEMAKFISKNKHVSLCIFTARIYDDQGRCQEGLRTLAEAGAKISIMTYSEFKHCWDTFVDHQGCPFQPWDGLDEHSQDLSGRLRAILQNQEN

Structure (SMILES): O=C(OCC#CCSc1nnc(-c2cccc3ccccc23)o1)c1cccc2[nH]ccc12
- IC50 (CHO-K1): > 66.2 µM (inactive)
- IC50 [1]: > 49.8 µM (inactive)
- IC50 [2]: 0.506 µM (active)
- IC50 [3]: 14 µM (inactive)
- IC50 (Orexin receptor type 2 [4]): > 88.8 µM (inactive)
- IC50 (Orexin receptor type 2 [5]): 1.39 µM (active)

Structure (SMILES): CN(c1ccc(OCC(=O)OCC(=O)Nc2ccc(Br)cc2)cc1)S(=O)(=O)c1cccs1
- IC50 (Melanocortin receptor 4): > 64.6 µM (inactive)
- IC50 [6]: > 64.6 µM (inactive)

Structure (SMILES): c1coc(CNc2nc(N3CCCCC3)nc3ccccc23)c1
- CC50 [7]: 19.6 µM (active)
- IC50 (cells): 6.64 µM (active)
- EC50 [8]: 1.79 µM (active)

Structure (SMILES): O=C(NCCCN1CCN(CCCNC(=O)c2cccc(Cl)c2)CC1)c1cccc(Cl)c1
- EC50 [8]: 9.44 µM (active)

Structure (SMILES): CCOc1ccc(C(=O)Nc2ccc3ccccc3c2)cc1Cl
- IC50 [9]: > 99 µM (inactive)
- IC50 (Caspase-3): > 99 µM (inactive)
- IC50 [10]: > 99 µM (inactive)
- IC50 [11]: > 99 µM (inactive)

Structure (SMILES): COc1cccc(/C=N/NC(=O)c2nnn(-c3nonc3N)c2CN(C)c2ccccc2)c1
- IC50 (CHO-K1): > 66.2 µM (inactive)
- IC50 [1]: > 49.7 µM (inactive)
- IC50 [2]: 0.513 µM (active)
- IC50 [3]: 5.95 µM (active)
- IC50 (Orexin receptor type 2 [4]): > 88.8 µM (inactive)
- IC50 (Orexin receptor type 2 [5]): 5.39 µM (active)

Structure (SMILES): CS(=O)(=O)N1CCC(C(=O)Nc2cc(C(F)(F)F)ccc2N2CCOCC2)CC1
- IC50 [12]: > 99 µM (inactive)
- IC50 [13]: > 99 µM (inactive)
